Patent publication US20090105305A1, “Therapeutic Agents - 550” (AstraZeneca AB, priority 2006, published 2009)

Target: T1, human Fatty Acid Synthase (Homo sapiens, UniProt P49327)
T1 construct: made in house
Experiment: Human FAS enzyme assay (decrease in NADPH fluorescence)
Type: biochemical
Settings: for inhibition at 100 µM: % inhibition at a concentration of 100 micromolar; for IC50s in the range of about 0.001 μM to about 30 μM: compounds excluded from the claims by proviso
Method in brief: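 Readout: decrease in NADPH fluorescence (340 nm ex, 460 nm em) after 60 min at RT, background-subtracted against a read taken before substrate. Substrate mix contained 500 μM malonyl-CoA and 150 μM acetyl-CoA. It was added after 15 min enzyme (0.4 μg in-house human FAS)–compound–NADPH preincubation in Tris pH 7.5 buffer; % inhibition was fitted to IC50.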

T1 sequence (P49327 whole entry): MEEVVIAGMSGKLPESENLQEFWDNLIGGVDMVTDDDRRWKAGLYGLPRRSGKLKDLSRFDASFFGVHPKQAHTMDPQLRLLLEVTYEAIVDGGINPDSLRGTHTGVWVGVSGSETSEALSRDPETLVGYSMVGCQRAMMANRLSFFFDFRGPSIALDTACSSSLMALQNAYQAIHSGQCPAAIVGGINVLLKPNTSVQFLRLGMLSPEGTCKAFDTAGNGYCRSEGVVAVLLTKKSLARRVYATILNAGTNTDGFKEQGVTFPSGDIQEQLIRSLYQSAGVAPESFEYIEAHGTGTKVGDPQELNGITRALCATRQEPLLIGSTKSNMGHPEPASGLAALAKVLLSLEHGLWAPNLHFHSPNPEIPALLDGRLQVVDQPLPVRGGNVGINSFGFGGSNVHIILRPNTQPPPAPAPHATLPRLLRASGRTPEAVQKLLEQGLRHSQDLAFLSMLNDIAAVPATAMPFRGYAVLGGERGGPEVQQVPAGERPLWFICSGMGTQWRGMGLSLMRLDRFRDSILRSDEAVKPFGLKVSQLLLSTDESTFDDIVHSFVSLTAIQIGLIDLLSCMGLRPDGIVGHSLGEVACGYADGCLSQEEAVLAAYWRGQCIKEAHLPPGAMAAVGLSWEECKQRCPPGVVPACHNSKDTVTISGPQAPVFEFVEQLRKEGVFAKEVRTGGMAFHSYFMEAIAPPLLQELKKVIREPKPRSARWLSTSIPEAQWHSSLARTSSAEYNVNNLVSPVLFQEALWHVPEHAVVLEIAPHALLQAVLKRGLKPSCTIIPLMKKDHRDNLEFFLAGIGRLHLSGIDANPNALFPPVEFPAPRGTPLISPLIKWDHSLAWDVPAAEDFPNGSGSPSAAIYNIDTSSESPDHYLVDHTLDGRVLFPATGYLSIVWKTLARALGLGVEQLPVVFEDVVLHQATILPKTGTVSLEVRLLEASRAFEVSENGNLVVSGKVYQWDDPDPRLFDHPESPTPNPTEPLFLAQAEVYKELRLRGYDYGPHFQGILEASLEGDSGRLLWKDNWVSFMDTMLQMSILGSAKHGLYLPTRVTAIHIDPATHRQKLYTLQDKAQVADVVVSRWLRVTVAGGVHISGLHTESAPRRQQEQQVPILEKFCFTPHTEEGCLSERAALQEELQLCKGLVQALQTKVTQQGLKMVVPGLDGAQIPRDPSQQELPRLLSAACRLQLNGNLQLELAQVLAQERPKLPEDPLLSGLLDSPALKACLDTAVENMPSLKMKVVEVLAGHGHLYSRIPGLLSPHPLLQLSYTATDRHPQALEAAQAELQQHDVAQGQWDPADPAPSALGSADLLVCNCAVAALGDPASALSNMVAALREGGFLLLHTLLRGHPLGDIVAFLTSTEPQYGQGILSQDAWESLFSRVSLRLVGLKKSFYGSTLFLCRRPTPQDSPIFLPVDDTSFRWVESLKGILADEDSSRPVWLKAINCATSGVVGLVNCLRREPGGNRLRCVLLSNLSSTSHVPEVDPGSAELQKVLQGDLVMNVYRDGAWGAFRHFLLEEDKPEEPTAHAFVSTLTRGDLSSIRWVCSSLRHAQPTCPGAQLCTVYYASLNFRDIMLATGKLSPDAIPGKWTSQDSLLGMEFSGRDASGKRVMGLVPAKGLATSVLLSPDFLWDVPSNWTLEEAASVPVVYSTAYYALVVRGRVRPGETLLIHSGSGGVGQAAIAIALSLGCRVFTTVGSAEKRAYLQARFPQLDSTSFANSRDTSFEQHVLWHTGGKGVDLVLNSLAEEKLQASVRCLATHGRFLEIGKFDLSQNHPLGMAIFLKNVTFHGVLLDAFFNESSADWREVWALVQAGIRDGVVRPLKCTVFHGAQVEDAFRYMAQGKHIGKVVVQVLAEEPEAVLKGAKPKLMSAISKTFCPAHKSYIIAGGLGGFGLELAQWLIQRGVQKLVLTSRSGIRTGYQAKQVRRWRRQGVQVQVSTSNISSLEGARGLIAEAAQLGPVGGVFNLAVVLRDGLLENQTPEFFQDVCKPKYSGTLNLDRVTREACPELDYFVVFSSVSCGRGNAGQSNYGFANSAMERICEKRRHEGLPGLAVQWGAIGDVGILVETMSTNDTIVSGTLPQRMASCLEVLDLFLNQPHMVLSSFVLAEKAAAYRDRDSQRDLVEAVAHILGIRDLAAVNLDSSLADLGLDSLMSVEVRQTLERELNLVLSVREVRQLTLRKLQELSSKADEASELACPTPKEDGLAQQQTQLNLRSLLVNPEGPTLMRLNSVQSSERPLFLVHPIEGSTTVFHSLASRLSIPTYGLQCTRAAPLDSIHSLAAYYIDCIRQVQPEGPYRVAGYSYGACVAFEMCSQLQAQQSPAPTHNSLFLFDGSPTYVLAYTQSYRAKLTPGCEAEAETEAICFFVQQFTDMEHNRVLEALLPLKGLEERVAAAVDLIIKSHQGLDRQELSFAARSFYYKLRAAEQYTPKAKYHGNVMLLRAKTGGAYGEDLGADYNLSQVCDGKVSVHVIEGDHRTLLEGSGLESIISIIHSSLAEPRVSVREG

Structure (SMILES)	inhibition at 100 µM [%]	IC50s in the range of about 0.001 μM to about 30 μM
COCc1ccc(C(=O)N2CCC(c3ccc(C#N)cc3)CC2)cc1NS(C)(=O)=O [Example 161, N-[5-[4-(4-cyanophenyl)piperidine-1-carbonyl]-2-(methoxymethyl)phenyl]methanesulfonamide]	80	
Cc1ccc(NS(=O)(=O)CC2CCCC2)cc1C(=O)N1CCC(c2ccc(C#N)cc2)CC1 [Example 43, N-[3-[4-(4-cyanophenyl)piperidine-1-carbonyl]-4-methyl-phenyl]-1-cyclopentyl-methanesulfonamide]	93	
Cc1ccc(C(=O)N2CCC(c3ccc(C#N)cc3)CC2)cc1NS(=O)(=O)c1cnc(C)n1C [Example 114, N-[5-[4-(4-cyanophenyl)piperidine-1-carbonyl]-2-methyl-phenyl]-2,3-dimethyl-imidazole-4-sulfonamide]	85	
Cc1ccc(C(=O)N2CCC(c3ccc(C#N)cc3)CC2)cc1NS(=O)(=O)c1ccccc1C(N)=O [Example 113, 2-[[5-[4-(4-cyanophenyl)piperidine-1-carbonyl]-2-methyl-phenyl]sulfamoyl]benzamide]	77	
CCc1ccc(C(=O)N2CCC(c3ccc(C#N)cc3)CC2)cc1NS(=O)(=O)C1CCS(=O)(=O)C1 (stereo not shown) [Example 124, N-[5-[4-(4-cyanophenyl)piperidine-1-carbonyl]-2-ethyl-phenyl]-1,1-dioxo-thiolane-3-sulfonamide]	82	
Cc1ccc(C(=O)N2CCC(c3ccc(CC(N)=O)cc3)CC2)cc1NS(C)(=O)=O [2-[4-[1-(3-methanesulfonamido-4-methylbenzoyl)piperidin-4-yl]phenyl]acetamide]		do not have IC50s in the range of about 0.001 μM to about 30 μM
Cc1ccc(NS(=O)(=O)c2ccccc2C#N)cc1C(=O)N1CCC(c2ccc(C#N)cc2)CC1 [Example 46, 2-cyano-N-[3-[4-(4-cyanophenyl)piperidine-1-carbonyl]-4-methyl-phenyl]benzenesulfonamide]	79	
CCS(=O)(=O)Nc1cc(C(=O)N2CCC(c3ccc(C#N)cc3)CC2)ccc1C [Example 11, N-[5-[4-(4-cyanophenyl)piperidine-1-carbonyl]-2-methyl-phenyl]ethanesulfonamide]	88	
Cc1ccc(C(=O)N2CCC(c3ccc(Oc4nccc(C(F)(F)F)n4)cc3)CC2)cc1NS(C)(=O)=O [Example 189, N-[2-methyl-5-[4-[4-[4-(trifluoromethyl)pyrimidin-2-yl]oxyphenyl]piperidine-1-carbonyl]phenyl]methanesulfonamide]	88	
Cc1ccc(C(=O)N2CCC(c3ccc(CNS(=O)(=O)CC(C)C)cc3)CC2)cc1NS(C)(=O)=O [Example 238, N-[[4-[1-(3-methanesulfonamido-4-methylbenzoyl)piperidin-4-yl]phenyl]methyl]-2-methylpropane-1-sulfonamide]	81.3	
CCCC(C)S(=O)(=O)Nc1ccc(C)c(C(=O)N2CCC(c3ccc(C#N)cc3)CC2)c1 (stereo not shown) [Example 59, N-[3-[4-(4-cyanophenyl)piperidine-1-carbonyl]-4-methyl-phenyl]pentane-2-sulfonamide]	89	
Cc1ccc(C(=O)N2CCC(c3ccc(C#N)cc3)CC2)cc1NS(=O)(=O)C1CCN(S(C)(=O)=O)CC1 [Example 121, N-[5-[4-(4-cyanophenyl)piperidine-1-carbonyl]-2-methyl-phenyl]-1-methylsulfonyl-piperidine-4-sulfonamide]	89	
CCCC(C)S(=O)(=O)Nc1cc(C(=O)N2CCC(c3ccc(C#N)cc3)CC2)ccc1C (stereo not shown) [Example 63, N-[5-[4-(4-cyanophenyl)piperidine-1-carbonyl]-2-methyl-phenyl]pentane-2-sulfonamide]	85	
Cc1ccc(C(=O)N2CCC(c3ccc(C#N)cc3)CC2)cc1NS(=O)(=O)CCO [Example 109, N-[5-[4-(4-cyanophenyl)piperidine-1-carbonyl]-2-methyl-phenyl]-2-hydroxy-ethanesulfonamide]	94	
CCCS(=O)(=O)Nc1ccc(C)c(C(=O)N2CCC(c3ccc(C#N)cc3)CC2)c1 [Example 33, N-[3-[4-(4-cyanophenyl)piperidine-1-carbonyl]-4-methyl-phenyl]propane-1-sulfonamide]	91	
Cc1ccc(C(=O)N2CCC(c3ccc(C#N)cc3)CC2)cc1NS(=O)(=O)CCCNS(C)(=O)=O [Example 132, N-[5-[4-(4-cyanophenyl)piperidine-1-carbonyl]-2-methyl-phenyl]-3-methanesulfonamido-propane-1-sulfonamide]	88	
COc1ccccc1C1CCN(C(=O)c2ccc(C)c(NS(C)(=O)=O)c2)CC1 [N-[5-[4-(2-methoxyphenyl)piperidine-1-carbonyl]-2-methylphenyl]methanesulfonamide]		do not have IC50s in the range of about 0.001 μM to about 30 μM

Structure (SMILES)	inhibition at 100 µM [%]	IC50s in the range of about 0.001 μM to about 30 μM
Cc1ccc(NS(=O)(=O)c2ccc3c(c2)CC(=O)N3)cc1C(=O)N1CCC(c2ccc(C#N)cc2)CC1 [Example 53, N-[3-[4-(4-cyanophenyl)piperidine-1-carbonyl]-4-methyl-phenyl]-2-oxo-1,3-dihydroindole-5-sulfonamide]	84	
Cc1ccc(C(=O)N2CCC(c3ccc(C#N)cc3)CC2)cc1NS(=O)(=O)C(C)C [Example 128, N-[5-[4-(4-cyanophenyl)piperidine-1-carbonyl]-2-methyl-phenyl]propane-2-sulfonamide]	96	
Cc1ccc(NS(=O)(=O)CC(F)(F)F)cc1C(=O)N1CCC(c2ccc(C#N)cc2)CC1 [Example 55, N-[3-[4-(4-cyanophenyl)piperidine-1-carbonyl]-4-methyl-phenyl]-2,2,2-trifluoro-ethanesulfonamide]	79	
Cc1ccc(C(=O)N2CCC(c3ccc(C#N)cc3)CC2)cc1NS(=O)(=O)c1cnoc1C [Example 95, N-[5-[4-(4-cyanophenyl)piperidine-1-carbonyl]-2-methyl-phenyl]-5-methyl-1,2-oxazole-4-sulfonamide]	73	
Cc1ccc(C(=O)N2CCC(c3ccc(C#N)cc3)CC2)cc1NS(=O)(=O)Cc1cccc(F)c1 [Example 27, N-[5-[4-(4-cyanophenyl)piperidine-1-carbonyl]-2-methyl-phenyl]-1-(3-fluorophenyl)methanesulfonamide]	96	
Cc1ccc(NS(=O)(=O)C(C)C)cc1C(=O)N1CCC(c2ccc(C#N)cc2)CC1 [Example 32, N-[3-[4-(4-cyanophenyl)piperidine-1-carbonyl]-4-methyl-phenyl]propane-2-sulfonamide]	85	
Cc1ccc(C(=O)N2CCC(c3ccc(S(=O)(=O)N4CC[C@@H](O)C4)cc3)CC2)cc1NS(C)(=O)=O [N-[5-[4-[4-[(3R)-3-hydroxypyrrolidin-1-yl]sulfonylphenyl]piperidine-1-carbonyl]-2-methylphenyl]methanesulfonamide]		do not have IC50s in the range of about 0.001 μM to about 30 μM
Cc1ccc(NS(=O)(=O)C2CCCCC2)cc1C(=O)N1CCC(c2ccc(C#N)cc2)CC1 [Example 42, N-[3-[4-(4-cyanophenyl)piperidine-1-carbonyl]-4-methyl-phenyl]cyclohexanesulfonamide]	90	
Cc1ccc(C(=O)N2CCC(c3ccc(C#N)cc3)CC2)cc1NS(=O)(=O)CS(C)(=O)=O [Example 195, N-[5-[4-(4-cyanophenyl)piperidine-1-carbonyl]-2-methylphenyl]-1-methylsulfonyl-methanesulfonamide]	72	
Cc1ccc(C(=O)N2CCC(c3ccc(CN)cc3)CC2)cc1NS(C)(=O)=O [N-[5-[4-[4-(aminomethyl)phenyl]piperidine-1-carbonyl]-2-methylphenyl]methanesulfonamide]		do not have IC50s in the range of about 0.001 μM to about 30 μM
Cc1ccc(C(=O)N2CCC(c3ccc(C#N)cc3)CC2)cc1NS(=O)(=O)c1ccc(N(C)C)nc1 [Example 96, N-[5-[4-(4-cyanophenyl)piperidine-1-carbonyl]-2-methyl-phenyl]-6-dimethylamino-pyridine-3-sulfonamide]	98	
Cc1ccc(NS(=O)(=O)c2cnoc2C)cc1C(=O)N1CCC(c2ccc(C#N)cc2)CC1 [Example 39, N-[3-[4-(4-cyanophenyl)piperidine-1-carbonyl]-4-methyl-phenyl]-5-methyl-1,2-oxazole-4-sulfonamide]	80	
Cc1ccc(C(=O)N2CCC(c3ccc(C#N)cc3)CC2)cc1NS(C)(=O)=O [Example 1, N-(5-(4-(4-cyanophenyl)piperidine-1-carbonyl)-2-methylphenyl)methanesulfonamide]	86	
Cc1ccc(C(=O)N2CCC(c3ccc(C#N)cc3)CC2)cc1NS(=O)(=O)CC(O)CN(C)C (stereo not shown) [Example 150, N-[5-[4-(4-cyanophenyl)piperidine-1-carbonyl]-2-methyl-phenyl]-3-dimethylamino-2-hydroxy-propane-1-sulfonamide]	88	
COC(=O)CS(=O)(=O)Nc1cc(C(=O)N2CCC(c3ccc(C#N)cc3)CC2)ccc1C [Example 13, methyl 2-[[5-[4-(4-cyanophenyl)piperidine-1-carbonyl]-2-methyl-phenyl]sulfamoyl]acetate]	76	
Cc1ccc(C(=O)N2CCC(O)(c3ccc(Br)cc3)CC2)cc1NS(=O)(=O)Cc1ccccc1 [Example 201, N-[5-[4-(4-bromophenyl)-4-hydroxypiperidine-1-carbonyl]-2-methylphenyl]-1-phenylmethanesulfonamide]	68	
Cc1ccc(C(=O)N2CCC(c3ccc(C#N)cc3)CC2)cc1NS(=O)(=O)CCCN1CCOCC1 [Example 67, N-[5-[4-(4-cyanophenyl)piperidine-1-carbonyl]-2-methyl-phenyl]-3-morpholin-4-yl-propane-1-sulfonamide]	92	
